Measurements reported in US20030190338A1, “Topical application of immixture of ascorbic acid + ascorbic acid compounds for augmenting the synthesis of epidermal ceramides” (SOCIETE L'OREAL S.A., priority 2000, published 2003).

System: skin equivalent marketed by EPISKIN (reconstructed epidermis)
Assay: Synthesis of epidermal ceramides in reconstructed epidermis (14C acetate labelling, HPTLC, densitometry)
Format: cell-based
Conditions: each compound alone at 15 μg/ml, relative to the untreated control; for % increase in ceramides in the epidermis equivalent: 24 hours of treatment; for % increase in the ceramides in the epidermis equivalent: 48 hours of treatment
Protocol: Ascorbic acid and derivatives thereof were tested on a skin equivalent marketed by EPISKIN (LYON, France), after culturing the latter for 7 days. The culture and test media were those included in the kit marketed by the supplier. Each compound was tested individually at 15 μg/ml and in combination with 5 μg/ml (as vitamin C equivalent), in the culture medium. The reconstructed epidermes were treated for 24 hours. The control consisted of an identical epidermis equivalent which was subjected to topical application of culture medium without the test compound.
The reconstructed epidermis was incubated overnight with ^14C acetate (2 μCi/ml) before topical application of vitamin C and derivatives thereof, to monitor the synthesis of the lipids.
At the end of the incubation period, the epidermis equivalent was detached from its collagenic support. The preparation of the lipids of the epidermis equivalent and their analysis by HPTLC or high-performance thin-layer chromatography, were carried out according to the technique and with the buffers described by M. Ponec (1991, Adv. Lipid Res., 24:83-117).
At the end of the migration, densitometric analysis of the autoradiograph was carried out using a densitometer of the FUJI brand, model 1800.
The procedure described in Example 1 was repeated, except that the test was performed over 48 hours instead of 24 hours. In addition, only vitamin C and vitamin CP were tested, the mixture of the two being formulated using 7.5 μg/ml of each vitamin.

SMILES | % increase in ceramides in the epidermis equivalent [%] | % increase in the ceramides in the epidermis equivalent [%]
O=C1O[C@H]([C@@H](O)CO)C(O)=C1O [Vitamin C, ascorbic acid] | 54 | 126
O=C1O[C@H]([C@@H](O)CO)C(O)=C1O[C@H]1O[C@H](CO)[C@@H](O)[C@H](O)[C@H]1O [Vitamin CG, ascorbyl 2-glucoside] | 69 | –
O=C1O[C@H]([C@@H](O)CO)C([O-])=C1OP(=O)([O-])[O-].O=C1O[C@H]([C@@H](O)CO)C([O-])=C1OP(=O)([O-])[O-].[Mg+2].[Mg+2].[Mg+2] [Vitamin CP, Magnesium ascorbyl phosphate] | 99 | 148
